For the assay, the target named is T1, mTORC1 (Homo sapiens, UniProt P42345).
T1 construct: purchased sigma试剂有限公司 (Sigma) SRP0364
As to the kind of experiment: mTORC1 enzyme activity inhibition (phosphorylation of 5-FAM substrate peptide STTPGGTLFSTTPG), capillary electrophoresis with laser-induced fluorescence. The assay is classed as biochemical. Particulars: mTORC1 31.1 nM, substrate peptide 2 μM, 20 min; for inhibition at 1.25 µM: compound 1.25 μM, read-out: inhibition of the catalytic activity of mTORC1.

T1 sequence (P42345 1362-2549 limits assumed): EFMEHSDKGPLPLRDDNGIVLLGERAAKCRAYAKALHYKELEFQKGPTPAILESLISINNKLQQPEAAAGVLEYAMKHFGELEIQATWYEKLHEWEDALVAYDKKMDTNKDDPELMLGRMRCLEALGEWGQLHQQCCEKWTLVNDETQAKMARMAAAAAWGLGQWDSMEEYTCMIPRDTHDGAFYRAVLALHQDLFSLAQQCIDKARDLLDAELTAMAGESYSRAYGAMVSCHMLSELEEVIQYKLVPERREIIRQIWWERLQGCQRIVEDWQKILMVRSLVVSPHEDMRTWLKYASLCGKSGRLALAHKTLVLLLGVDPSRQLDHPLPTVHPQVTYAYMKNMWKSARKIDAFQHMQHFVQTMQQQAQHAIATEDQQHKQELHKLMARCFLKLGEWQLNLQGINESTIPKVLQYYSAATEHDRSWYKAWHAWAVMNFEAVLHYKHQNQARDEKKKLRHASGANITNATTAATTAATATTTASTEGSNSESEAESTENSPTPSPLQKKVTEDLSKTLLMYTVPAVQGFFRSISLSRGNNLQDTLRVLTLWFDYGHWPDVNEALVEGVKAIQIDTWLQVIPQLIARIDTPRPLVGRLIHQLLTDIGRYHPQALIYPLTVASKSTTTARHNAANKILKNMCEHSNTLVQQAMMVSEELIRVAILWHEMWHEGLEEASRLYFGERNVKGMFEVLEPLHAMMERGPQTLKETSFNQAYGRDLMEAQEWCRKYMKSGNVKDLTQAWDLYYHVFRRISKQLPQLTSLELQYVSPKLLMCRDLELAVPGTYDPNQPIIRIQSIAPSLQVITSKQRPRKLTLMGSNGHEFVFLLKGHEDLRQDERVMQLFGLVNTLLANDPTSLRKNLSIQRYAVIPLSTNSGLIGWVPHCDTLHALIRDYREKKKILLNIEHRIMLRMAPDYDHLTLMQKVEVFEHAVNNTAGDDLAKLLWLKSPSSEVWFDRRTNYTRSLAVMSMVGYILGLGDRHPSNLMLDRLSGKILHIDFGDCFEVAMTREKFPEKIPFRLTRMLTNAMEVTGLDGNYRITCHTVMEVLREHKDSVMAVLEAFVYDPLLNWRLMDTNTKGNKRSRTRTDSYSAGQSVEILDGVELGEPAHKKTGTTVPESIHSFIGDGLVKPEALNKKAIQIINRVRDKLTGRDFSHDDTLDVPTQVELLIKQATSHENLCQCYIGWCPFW

The compound `O=c1c(O)c(-c2ccc(O)c(O)c2)oc2cc(O)cc(O)c12` [槲皮素] registered an IC50 (nonlinear fit Origin 8.0) of 377 nM. Moreover, the inhibition percentage runs as follows: (quercetin 0.05 nmol/L) 0%; (quercetin 0.5 nmol/L) 0%; (quercetin 5 nmol/L) 0%; (quercetin 50 nmol/L) 8%; (quercetin 250 nmol/L) 47%; (quercetin 500 nmol/L) 53%. Besides, the inhibition percentage (quercetin 5×10^3 nmol/L) came out at 97%, the inhibition percentage (quercetin 5×10^4 nmol/L) amounted to 100% and the inhibition percentage (quercetin 5×10^5 nmol/L) amounted to 100%. Moreover, the “inhibition of mTORC1 phosphorylation of the substrate peptide (in words, electropherogram Fig. 1C)” value (quercetin 0.5 μM, 25℃) is “可以有效抑制”.

As to `O=c1c(O[C@@H]2O[C@H](CO)[C@H](O)[C@H](O)[C@H]2O)c(-c2ccc(O)c(O)c2)oc2cc(O)cc(O)c12` [金丝桃苷, reference compound], the inhibition at 1.25 µM was found to be 25%.

Consider `O=c1cc(-c2ccccc2)oc2cc(O)c(O)c(O)c12` [黄芩素, reference compound], for which the inhibition at 1.25 µM was found to be 25%.

By IC50 is commonly meant the concentration that inhibits the measured activity by half. Broadly, the inhibition is the share of the control response that was lost under treatment.

The record behind these values is CN105267200A, “一种黄酮类化合物的应用” (Shanghai Institute of Organic Chemistry of CAS, priority 2014, dated 2016).
